Assay results as given in patent EP0583821A1, “Atriopeptins, guanylate cyclase activators, and phosphodiesterase inhibitors as treatment for glaucoma, hydrocephalus and cerebral edema (cranial fluid volume dysfunction)” (THE GENERAL HOSPITAL CORPORATION, priority 1987, dated 1988).

Assays:
guanylate cyclase [1] = target: T1, guanylate cyclase (Oryctolagus cuniculus, UniProt G1TXB5); assay: Atriopeptin-activated guanylate cyclase in kidney membrane (P1) fractions; type: biochemical, rabbit; parameters: tissues were homogenized (10 mg wet weight per milliliter); from tissue; host or cells: rabbit cerebral microvessels, choroid plexus, kidney, ciliary process, pia-arachnoid, cerebellum; 100,000 g P1 pellet; settings: mean ± range of duplicate determinations
T1 sequence (G1TXB5 28-1056): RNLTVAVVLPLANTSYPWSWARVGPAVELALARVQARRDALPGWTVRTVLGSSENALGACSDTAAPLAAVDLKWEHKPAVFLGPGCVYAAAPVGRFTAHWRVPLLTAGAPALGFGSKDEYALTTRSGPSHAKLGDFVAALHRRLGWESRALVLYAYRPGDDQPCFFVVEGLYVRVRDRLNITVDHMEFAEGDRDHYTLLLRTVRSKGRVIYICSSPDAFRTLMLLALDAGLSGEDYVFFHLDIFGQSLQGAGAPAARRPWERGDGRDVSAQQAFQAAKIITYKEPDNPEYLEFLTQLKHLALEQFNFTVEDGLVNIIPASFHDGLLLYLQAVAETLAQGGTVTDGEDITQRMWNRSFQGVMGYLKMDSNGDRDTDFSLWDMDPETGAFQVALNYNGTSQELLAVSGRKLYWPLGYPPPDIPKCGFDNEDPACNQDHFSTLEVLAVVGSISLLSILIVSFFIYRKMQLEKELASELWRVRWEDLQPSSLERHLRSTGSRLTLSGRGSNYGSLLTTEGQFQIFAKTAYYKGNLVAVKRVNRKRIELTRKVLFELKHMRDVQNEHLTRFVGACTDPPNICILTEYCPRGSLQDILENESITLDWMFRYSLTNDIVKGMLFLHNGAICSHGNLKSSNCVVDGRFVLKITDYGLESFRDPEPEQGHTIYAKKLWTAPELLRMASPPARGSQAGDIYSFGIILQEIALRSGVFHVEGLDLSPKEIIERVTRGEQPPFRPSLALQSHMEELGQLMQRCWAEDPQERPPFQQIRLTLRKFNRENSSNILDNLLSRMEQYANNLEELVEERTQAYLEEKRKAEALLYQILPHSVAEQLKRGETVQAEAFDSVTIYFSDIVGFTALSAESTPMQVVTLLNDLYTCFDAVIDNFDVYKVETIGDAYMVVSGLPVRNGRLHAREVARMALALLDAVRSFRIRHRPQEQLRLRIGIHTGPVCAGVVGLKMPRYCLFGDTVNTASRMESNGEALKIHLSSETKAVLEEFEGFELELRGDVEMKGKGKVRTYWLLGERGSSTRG
Experimental: (§1) The effect of rANP on membrane-bound guanylate cyclase and adenylate cyclase activity in various brain-barrier tissues and tissue fractions from rabbit was compared with its activity in cerebrum and cerebellum. Guanylate cyclase was measured as the rate of cyclic GMP formation by modifications of the technique of Waldman et al., supra, incorporated herein by reference. Briefly, tissues were homogenized (10 mg wet weight per milliliter) in 50 mM tris-HCl, pH 8.0, 1 mM EDTA, 1 mM dithiothreitol, and 250 mM sucrose and centrifuged at 100,000g to obtain a P1 pellet. Reaction tubes contained (in 0.3 ml), 50 mM tris, pH 7.6, 6 mM MnCl₂, 0.5 mM 3-isobutyl, 1-methylxanthine (IBMX), 10 mM theophylline, 3 mM GTP, hormone (in 0.03 ml containing 2.5 mM ascorbic acid and 0.1% bovine serum albumin), and 0.06 ml of P1 fraction (40 to 60 ug of protein). The reaction (4 minutes at 30°C) was started by addition of GTP and terminated by addition of 0.3 ml of 150 mM sodium acetate (pH 4.0) and boiling for 3 minutes. Cyclic GMP formed was subsequently measured by radioimmunoassay as described in example 6, infra. Under these conditions, guanylate cyclase activity was linear with time and tissue concentration. Adenylate cyclase activity in P1 fractions was measured according to the method described by Nathanson, et al., Science; 204:843 (1979); Mol. Pharmacol. 18:199 (1980), see Figure 1C . […] Neurosci. Abstr., 10, 899 (1984); Nathanson, et al., Soc. Neurosci. Abstr., 12, 1257 (1986), incorporated herein by reference, but with a lower concentration (0.025%) of trypsin and a rotating tissue tumbler which allowed cleaner fractionation of epithelial cells from erythrocytes and vascular components.
Ciliary process tips were obtained from male, 3-4 kg, New Zealand white rabbits, immediately following sacrifice with an overdose of ether, as described in Nathanson, Invest. Ophthal. Vis. Sci., 21:7981 (1982). […]
Atriopeptin-activated guanylate cyclase activity was measured as the rate of conversion of GTP to cyclic GMP. […]

guanylate cyclase [2] = assay: Guanylate cyclase in pia-arachnoid preparation; type: biochemical, rabbit
Experimental: as §1, with “Abstr., 10, 899 (1984); Nathanson, et al., Soc. Neurosci. Abstr., 12, 1257 (1986), incorporated herein by reference, but with a lower concentration (0.025%) of trypsin and a rotating tissue tumbler which allowed cleaner fractionation of epithelial cells from erythrocytes and vascular components.” left out

Substance | Vmax Stimulation (%) of Guanylate Cyclase Kidney (guanylate cyclase [1]) [%] | degree of enzyme stimulation (guanylate cyclase [2]) [%]
Ser-Leu-Arg-Arg-atriopeptin III (APIII) [rANP 1-28] | 129 ± 25 | 15
rANP 13-28 (DRIGAQSGLGCNSFRY; Atrial natriuretic peptide; UniProt P01161 135-150, looked up, fragment) | 54 ± 4 | –
